Results reported in US20240016941A1, “COMBINATION THERAPY” (priority 2020, published 2024).

Legend:
[1] = biological target: T1, purified LasB protein from P. aeruginosa (Pseudomonas aeruginosa, UniProt P14756); assay: Fluorometric assay to determine Ki (purified LasB, Abz-Ala-Gly-Leu-Ala-p-Nitro-Benzyl-Amide substrate); type: biochemical
T1 construct: purchased Merck or Charles River Laboratories
Description: (§1) Experiments were therefore conducted (1) to measure the potency of inhibition of compounds of the invention against purified Pseudomonas aeruginosa LasB enzyme and also experiments were conducted (2) to measure the ability of compounds of the invention to inhibit LasB-catalysed elastin degradation. The first assay uses a commercial fluorescent synthetic peptide and purified LasB enzyme. The LasB hydrolysis kinetics are measured allowing the determination of the IC50 and Ki of the inhibitors; the second is a more physiological assay using dialysed Pseudomonas aeruginosa supernatant as source of enzyme, plus its natural substrate Elastin. It is an “end point assay” that determines the percentage of LasB inhibition by each compound for one particular time point and inhibitor concentration. Technical details are described below:
This assay uses commercially available substrate (Abz-Ala-Gly-Leu-Ala-p-Nitro-Benzyl-Amide (Ex: 340 nm, Em: 415 nm) from Peptide International) and purified LasB protein from P. aeruginosa (provided by Merck or Charles River Laboratories). It is performed to determine LasB elastase activity and assess compound inhibition in 96-well plate format. All compounds of Formula (I) were assessed using the method described below.
Method: 10 to 140 ng/ml purified LasB is incubated with 250 μM Abz-Ala-Gly-Leu-Ala-p-Nitro-Benzyl-Amide in 50 mM Tris-HCl pH 7.4, 2.5 mM CaCl2), 0.01% of Triton X100 at 37° C. LasB activity (corresponding to fluorescence emission induced by substrate hydrolysis) is measured over 30 min at 37° C. with a fluorescence plate reader such as the Perkin Elmer Envision or similar. Different range of inhibitor concentrations are routinely assessed depending of inhibitor potency from 0.0016 to 200 μM (2-fold dilutions series) in order to determine IC50.
The equation used to calculate the Ki from IC50 is: Ki=IC50/(1+([S]/Km)) where [S]=250 μM and Km=214 μM.

[2] = biological target: T2, LasB elastase activity of dialysed supernatant from P. aeruginosa PAO1 (Pseudomonas aeruginosa, UniProt P14756); assay: Elastin Congo-Red assay to determine % inhibition (dialysed PAO1 supernatant); type: biochemical; conditions: read-out: Elastin hydrolysis % inhibition @ 25 μM inhibitor concentration
T2 construct: Culture supernatants are recovered by centrifugation and filtrated through a 0.22 μM filter; endogenous in cells; host or cells: P. aeruginosa strain PAO1, culture supernatant, filtered and dialysed
Description: as §1
The Elastin assay uses as source of enzyme dialysed supernatant from P. aeruginosa PAO1 and the Elastin Congo-Red as substrate. The natural LasB substrate, elastin, is complexed with the congo-red dye (Elastin Congo-Red, ECR). The elastolysis activity from the culture supernatant will degrade elastin and release the congo-red dye into the supernatant. This red dye release can be measured with a spectrophotometer.
Method: To determine LasB elastase activity and assess compound inhibition, an overnight culture of P. aeruginosa strain PAO1 is diluted in LB medium. After reaching an OD600nm of 0.6, this culture is diluted and incubated for additional 18-24 hours in a shaking incubator. Culture supernatants are recovered by centrifugation and filtrated through a […] filter. These supernatants are dialysed (filtration molecules <20 kDa) into a 50 mM Tris-HCl pH 7.4, 2.5 mM CaCl2 solution at 4° C. under agitation for 24 hours. Supernatant dialysed is then mixed volume/volume with the ECR suspension (20 mg/mL of ECR in 100 mM Tris-HCl pH 7.4 buffer supplemented with 1 mM CaCl2)) supplemented with Triton X100 (final concentration of 0.01%) in presence of DMSO (positive control) and/or different concentrations of compound (routinely 50 to 1.56 μM). As a negative control, the dialysed supernatant is replaced by Tris-HCl solution (50 mM Tris-HCl pH 7.4, 2.5 mM CaCl2). The mixed reaction is then incubated overnight in a 37° C. shaking incubator. The reaction supernatant is recovered by centrifugation and the release of congo-red is measured by its absorbance at 495 nm (OD495nm).
Percentage inhibition is determined using the following equation:
((OD495 nm value of positive control−OD495nm value of negative control)−(OD495nm value of treated supernatant−OD495nm value of negative control))/(OD495nm value of positive control−OD495nm value of negative control)×100.

T2 sequence (P14756 198-498): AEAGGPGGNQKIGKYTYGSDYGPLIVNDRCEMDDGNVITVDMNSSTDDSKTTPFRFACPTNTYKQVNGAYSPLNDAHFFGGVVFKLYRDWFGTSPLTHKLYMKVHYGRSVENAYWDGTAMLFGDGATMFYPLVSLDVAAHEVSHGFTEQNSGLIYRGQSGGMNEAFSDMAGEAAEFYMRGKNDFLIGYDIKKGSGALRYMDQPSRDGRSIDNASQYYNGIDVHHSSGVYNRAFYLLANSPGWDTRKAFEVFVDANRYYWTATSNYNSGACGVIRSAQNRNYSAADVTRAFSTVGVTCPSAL
T1 sequence (P14756 198-498): as above

Row | SMILES | Ki [1] | inhibition at 25 µM [2]
1 | COc1cc2sc(CNC(=O)C3(CC(=O)[O-])Cc4cc(F)c(F)cc4C3)nc2cc1OCC[N+](C)(C)C [Example 56, 2-[5,6-difluoro-2-[[6-methoxy-5-[2-(trimethylammonio)ethoxy]-1,3-benzothiazol-2-yl]methylcarbamoyl]indan-2-yl]acetate] | 50 to 100 nM | 
2 | COc1cc2sc(CNC(=O)C3(CC(=O)[O-])Cc4cc(F)c(F)cc4C3)nc2cc1OCCC[N+]1(C)CCOCC1 [Example 15, 2-[5,6-difluoro-2-[[6-methoxy-5-[3-(4-methylmorpholin-4-ium-4-yl)propoxy]-1,3-benzothiazol-2-yl]methylcarbamoyl]indan-2-yl]acetate] | 50 to 200 nM | 60 to 80%
3 | CN(C)C1CN(C(=O)c2ccc3sc(CNC(=O)C4(CC(=O)O)Cc5ccccc5C4)nc3c2)C1 [Example 32, 2-[2-[[5-[3-(dimethylamino)azetidine-1-carbonyl]-1,3-benzothiazol-2-yl]methylcarbamoyl]indan-2-yl]acetic acid] | 50 to 200 nM | 60 to 80%
4 | O=C(O)CC1(C(=O)NCc2nc3c(C(=O)N4CCCC4)cccc3s2)Cc2ccccc2C1 [Example 2, 2-[2-[[4-(pyrrolidine-1-carbonyl)-1,3-benzothiazol-2-yl]methylcarbamoyl]indan-2-yl]acetic acid] | 200 to 10000 nM | 
5 | COc1cc2sc(CNC(=O)C3(CC(=O)O)Cc4ccccc4C3)nc2cc1C(=O)N1CCC(N(C)C)CC1 [Example 38, 2-[2-[[5-[4-(dimethylamino)piperidine-1-carbonyl]-6-methoxy-1,3-benzothiazol-2-yl]methylcarbamoyl]indan-2-yl]acetic acid] | 50 to 200 nM | 60 to 80%
6 | COc1cc2sc(CNC(=O)C3(CC(=O)O)Cc4cc(F)c(F)cc4C3)nc2cc1C(=O)N1CC(N(C)C)C1 [Example 37, 2-[2-[[5-[3-(dimethylamino)azetidine-1-carbonyl]-6-methoxy-1,3-benzothiazol-2-yl]methylcarbamoyl]-5,6-difluoro-indan-2-yl]acetic acid] | < 50 nM | > 80%
7 | NC(=O)c1cccc2sc(CNC(=O)C3(CC(=O)O)Cc4ccccc4C3)nc12 [Example 1, 2-[2-[(4-carbamoyl-1,3-benzothiazol-2-yl)methylcarbamoyl]indan-2-yl]acetic acid] | 200 to 10000 nM | 10 to 60%
8 | COc1cc2sc(CNC(=O)C3(CC(=O)[O-])Cc4ccccc4C3)nc2cc1S(=O)(=O)N1CCC([N+](C)(C)C)CC1 [Example 47, 2-[2-[[6-methoxy-5-[[4-(trimethylammonio)-1-piperidyl]sulfonyl]-1,3-benzothiazol-2-yl]methylcarbamoyl]indan-2-yl]acetate] | 50 to 200 nM | 60 to 80%
9 | COc1cc2sc(CNC(=O)C3(CC(=O)O)Cc4ccccc4C3)nc2cc1OCCCN(C)C [Example 52, 2-[2-[[5-[3-(dimethylamino)propoxy]-6-methoxy-1,3-benzothiazol-2-yl]methylcarbamoyl]indan-2-yl]acetic acid] | 50 to 100 nM | 
10 | COc1cc2sc(CNC(=O)C3(CC(=O)[O-])Cc4ccccc4C3)nc2cc1C(=O)N1CC([N+](C)(C)C)C1 [Example 42, 2-[2-[[6-methoxy-5-[3-(trimethylammonio)azetidine-1-carbonyl]-1,3-benzothiazol-2-yl]methylcarbamoyl]indan-2-yl]acetate] | 200 to 10000 nM | 60 to 80%
11 | COc1cc2sc(CNC(=O)C3(CC(=O)O)Cc4cc(F)c(F)cc4C3)nc2cc1C(=O)N1CCN(C)CC1 [Example 34, 2-[5,6-difluoro-2-[[6-methoxy-5-(4-methylpiperazine-1-carbonyl)-1,3-benzothiazol-2-yl]methylcarbamoyl]indan-2-yl]acetic acid] | < 50 nM | > 80%
12 | COc1cc2sc(CNC(=O)C3(CC(=O)[O-])Cc4ccccc4C3)nc2cc1C(=O)N1CCC([N+](C)(C)C)CC1 [Example 39, 2-[2-[[6-methoxy-5-[4-(trimethylammonio)piperidine-1-carbonyl]-1,3-benzothiazol-2-yl]methylcarbamoyl]indan-2-yl]acetate] | 200 to 10000 nM | 
13 | CS(=O)(=O)c1cccc2sc(CNC(=O)C3(CC(=O)O)Cc4ccccc4C3)nc12 [Example 7, 2-[2-[(4-methylsulfonyl-1,3-benzothiazol-2-yl)methylcarbamoyl]indan-2-yl]acetic acid] | 200 to 10000 nM | 
14 | CN(C)CCNC(=O)c1ccc2sc(CNC(=O)C3(CC(=O)O)Cc4ccccc4C3)nc2c1 [Example 28, 2-[2-[[5-[2-(dimethylamino)ethylcarbamoyl]-1,3-benzothiazol-2-yl]methylcarbamoyl]indan-2-yl]acetic acid] | 200 to 10000 nM | 
15 | NS(=O)(=O)c1cccc2sc(CNC(=O)C3(CC(=O)O)Cc4ccccc4C3)nc12 [Example 4, 2-[2-[(4-sulfamoyl-1,3-benzothiazol-2-yl)methylcarbamoyl]indan-2-yl]acetic acid] | 200 to 10000 nM | 
16 | CN(C)C1CN(C(=O)c2ccc3nc(CNC(=O)C4(CC(=O)O)Cc5ccccc5C4)sc3c2)C1 [Example 26, 2-[2-[[6-[3-(dimethylamino)azetidine-1-carbonyl]-1,3-benzothiazol-2-yl]methylcarbamoyl]indan-2-yl]acetic acid] | 200 to 10000 nM | 
17 | CN1CCN(C(=O)c2ccc3nc(CNC(=O)C4(CC(=O)O)Cc5ccccc5C4)sc3c2)CC1 [Example 29, 2-[2-[[6-(4-methylpiperazine-1-carbonyl)-1,3-benzothiazol-2-yl]methylcarbamoyl]indan-2-yl]acetic acid] | 200 to 10000 nM | 
18 | COc1cc2sc(CNC(=O)C3(CC(=O)[O-])Cc4ccccc4C3)nc2cc1OCCOCC[N+](C)(C)C [Example 54, 2-[2-[[6-methoxy-5-[2-[2-(trimethylammonio)ethoxy]ethoxy]-1,3-benzothiazol-2-yl]methylcarbamoyl]indan-2-yl]acetate] | 50 to 100 nM | 
19 | O=C(O)CC1(C(=O)NCc2nc3ccc(OCCCO)cc3s2)Cc2ccccc2C1 [Example 50, 2-[2-[[6-(3-hydroxypropoxy)-1,3-benzothiazol-2-yl]methylcarbamoyl]indan-2-yl]acetic acid] | 50 to 100 nM | 
20 | CN(C)CCNC(=O)c1ccc2nc(CNC(=O)C3(CC(=O)O)Cc4ccccc4C3)sc2c1 [Example 30, 2-[2-[[6-[2-(dimethylamino)ethylcarbamoyl]-1,3-benzothiazol-2-yl]methylcarbamoyl]indan-2-yl]acetic acid] | 200 to 10000 nM | 
21 | CCCOc1ccc2nc(CNC(=O)C3(CC(=O)O)Cc4ccccc4C3)sc2c1 [Example 51, 2-[2-[(6-propoxy-1,3-benzothiazol-2-yl)methylcarbamoyl]indan-2-yl]acetic acid] | 50 to 100 nM | 
22 | O=C(O)CC1(C(=O)NCc2nc3c(S(=O)(=O)N4CCNCC4)cccc3s2)Cc2ccccc2C1 [Example 5, 2-[2-[(4-piperazin-1-ylsulfonyl-1,3-benzothiazol-2-yl)methylcarbamoyl]indan-2-yl]acetic acid] | 200 to 10000 nM | 
23 | CN(C)CCCN1CCN(C(=O)c2ccc3sc(CNC(=O)C4(CC(=O)O)Cc5ccccc5C4)nc3c2)CC1 [Example 31, 2-[2-[[5-[4-[3-(dimethylamino)propyl]piperazine-1-carbonyl]-1,3-benzothiazol-2-yl]methylcarbamoyl]indan-2-yl]acetic acid] | 200 to 10000 nM | 
